The values below come from patent US6643591B1, “Use of computational and experimental data to model organic compound reactivity in cytochrome P450 mediated reactions and to optimize the design of pharmaceuticals” (University of Pittsburgh, priority 1998, dated 2003).

One series addresses CYP2C9 (Homo sapiens, UniProt P11712). Description: in vitro.
Another series concerns the target T1, CYP2B1 (Rattus norvegicus, UniProt P00176).
T1 sequence (P00176 1-491): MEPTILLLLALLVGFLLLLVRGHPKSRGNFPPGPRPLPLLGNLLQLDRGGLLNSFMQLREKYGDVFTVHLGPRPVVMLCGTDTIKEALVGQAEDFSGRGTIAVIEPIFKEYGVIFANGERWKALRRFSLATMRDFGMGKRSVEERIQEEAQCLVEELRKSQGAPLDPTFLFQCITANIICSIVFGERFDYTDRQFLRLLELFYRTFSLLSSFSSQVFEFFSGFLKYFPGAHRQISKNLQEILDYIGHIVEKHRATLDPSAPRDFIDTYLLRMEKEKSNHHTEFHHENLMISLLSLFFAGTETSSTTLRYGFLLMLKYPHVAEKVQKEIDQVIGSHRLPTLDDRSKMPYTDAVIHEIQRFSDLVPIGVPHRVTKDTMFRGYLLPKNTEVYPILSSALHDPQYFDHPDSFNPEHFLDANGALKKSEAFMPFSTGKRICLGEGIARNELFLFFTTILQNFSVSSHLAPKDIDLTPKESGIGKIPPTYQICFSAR
Description: in vitro.

Setting [1] is: pH 7.4, Regioselectivity BzH:Arom.
Where [2] appears, read: pH 7.4, Regioselectivity BzH:ODAlk.

Sequence of CYP2C9 (P11712 whole entry): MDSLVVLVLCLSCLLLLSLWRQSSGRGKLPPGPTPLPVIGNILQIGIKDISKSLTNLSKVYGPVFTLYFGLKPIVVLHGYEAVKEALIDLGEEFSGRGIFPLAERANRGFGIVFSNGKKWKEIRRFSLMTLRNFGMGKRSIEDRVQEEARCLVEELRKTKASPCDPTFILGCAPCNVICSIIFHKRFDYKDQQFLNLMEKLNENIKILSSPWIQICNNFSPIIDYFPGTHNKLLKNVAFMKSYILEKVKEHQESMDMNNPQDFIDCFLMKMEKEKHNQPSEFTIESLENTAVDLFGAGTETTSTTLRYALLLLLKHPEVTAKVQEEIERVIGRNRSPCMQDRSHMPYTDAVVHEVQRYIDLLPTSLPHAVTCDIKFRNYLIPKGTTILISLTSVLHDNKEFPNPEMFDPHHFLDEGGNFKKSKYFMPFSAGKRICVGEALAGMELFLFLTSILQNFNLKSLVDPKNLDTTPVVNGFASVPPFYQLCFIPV

In the case of `COc1ccccc1C` [o-Methylanisole, o-methylanisole], the selectivity ratio was determined as 1.6 at CYP2C9 (setting [1]), 2.5 on CYP2C9 (setting [2]), 0.31 on CYP2B1 (setting [1]) and 1.2 on CYP2B1 (setting [2]).
